# ChEMBL document CHEMBL3638513, “Compounds that are ERK inhibitors” (2013)
# Target: Mitogen-activated protein kinase 1 (Mus musculus, UniProt P63085)
# Experiment: IMAP Assay: Activated ERK2 activity was determined in the IMAP assay format.
# Mitogen-activated protein kinase 1, sequence (P63085 whole entry): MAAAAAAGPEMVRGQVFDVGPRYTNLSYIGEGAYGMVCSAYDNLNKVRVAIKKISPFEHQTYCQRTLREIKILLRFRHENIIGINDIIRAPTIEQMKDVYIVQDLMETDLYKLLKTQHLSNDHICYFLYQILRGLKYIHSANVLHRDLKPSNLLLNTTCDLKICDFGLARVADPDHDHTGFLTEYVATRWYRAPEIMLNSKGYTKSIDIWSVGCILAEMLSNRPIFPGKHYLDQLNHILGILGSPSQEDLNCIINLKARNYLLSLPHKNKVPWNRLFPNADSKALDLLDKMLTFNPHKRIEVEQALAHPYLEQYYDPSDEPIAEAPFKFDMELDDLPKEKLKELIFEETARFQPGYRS
smiles,measurement,value
COC[C@@]1(C(=O)Nc2ccc3[nH]nc(-c4ccnc(C5CC5)c4)c3c2)CCN(CC(=O)N2CC=C(c3ccc(-c4ncccn4)cc3)CC2)C1,IC50,18.1 nM
